Source: PubChem BioAssay AID256 (DTP/NCI, 2004)
“And” between values parts separate entries of the source, which are not always exact repeats. Equal entries are not always repeated. Inconclusive results and toxic doses are left out. Residues, ends and D or L forms follow the SMILES beside them. *: point of attachment. Trt = c1ccc(C(c2ccccc2)(c2ccccc2)*)cc1

Test system: CD2F1 mice, L1210 leukemia ip, survival T/C
Assay: NCI In Vivo Anticancer Drug Screen. Data for tumor model L1210 Leukemia (intraperitoneal) in CD2F1 (CDF1) mice
Settings: higher = longer survival
Procedure, shortened: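 Implant tumor; dose compound or vehicle; measure endpoint in both groups; report treated divided by control.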

[1] = endpoint: mean survival time, dose: 50.0 mg/kg/injection, schedule: Q01DX001 (ip), vehicle: saline
[2] = endpoint: mean survival time, dose: 100.0 mg/kg/injection, schedule: Q01DX001 (ip), vehicle: saline
[3] = endpoint: mean survival time, dose: 100.0 mg/kg/injection, schedule: Q04DX003 (ip), vehicle: saline
[4] = endpoint: mean survival time, dose: 200.0 mg/kg/injection, schedule: Q01DX001 (ip), vehicle: saline
[5] = endpoint: mean survival time, dose: 200.0 mg/kg/injection, schedule: Q04DX003 (ip), vehicle: saline
[6] = endpoint: mean survival time, dose: 400.0 mg/kg/injection, schedule: Q01DX001 (ip), vehicle: saline
[7] = endpoint: mean survival time, dose: 400.0 mg/kg/injection, schedule: Q04DX003 (ip), vehicle: saline
[8] = endpoint: mean survival time, dose: 100.0 mg/kg/injection, schedule: Q04DX003 (ip), vehicle: saline with Tween-80
[9] = endpoint: mean survival time, dose: 100.0 mg/kg/injection, schedule: Q01DX009 (ip), vehicle: saline with Tween-80
[10] = endpoint: mean survival time, dose: 200.0 mg/kg/injection, schedule: Q01DX009 (ip), vehicle: saline with Tween-80
[11] = endpoint: mean survival time, dose: 400.0 mg/kg/injection, schedule: Q01DX009 (ip), vehicle: saline with Tween-80
[12] = endpoint: mean survival time, dose: 200.0 mg/kg/injection, schedule: Q04DX003 (ip), vehicle: saline with Tween-80
[13] = endpoint: mean survival time, dose: 400.0 mg/kg/injection, schedule: Q04DX003 (ip), vehicle: saline with Tween-80
[14] = endpoint: mean survival time, dose: 25.0 mg/kg/injection, schedule: Q01DX009 (ip), vehicle: saline with Tween-80
[15] = endpoint: mean survival time, dose: 50.0 mg/kg/injection, schedule: Q01DX009 (ip), vehicle: saline with Tween-80

CC(C)[NH-].CC(C)[NH-].[Cl][Pt+2][Cl]
T/C (endpoint: mean survival time, dose: 1.56 mg/kg/injection, schedule: Q01DX009 (ip), vehicle: dextrose): 119 % of control
T/C (endpoint: mean survival time, dose: 1.56 mg/kg/injection, schedule: Q01DX009 (ip), vehicle: other): 112 % of control
T/C (endpoint: mean survival time, dose: 3.12 mg/kg/injection, schedule: Q01DX009 (ip), vehicle: other): 118 % of control
T/C (endpoint: mean survival time, dose: 3.13 mg/kg/injection, schedule: Q04DX003 (ip), vehicle: distilled water + Tween-80): 112 % of control
T/C (endpoint: mean survival time, dose: 6.25 mg/kg/injection, schedule: Q01DX009 (ip), vehicle: dextrose): 100 % of control
T/C (endpoint: mean survival time, dose: 6.25 mg/kg/injection, schedule: Q04DX003 (ip), vehicle: distilled water + Tween-80): 115 % of control
T/C (endpoint: mean survival time, dose: 12.5 mg/kg/injection, schedule: Q01DX009 (ip), vehicle: dextrose): 98 % of control and 112 % of control
T/C (endpoint: mean survival time, dose: 50.0 mg/kg/injection, schedule: Q01DX009 (ip), vehicle: other): 88 % of control
T/C (endpoint: mean survival time, dose: 50.0 mg/kg/injection, schedule: Q04DX003 (ip), vehicle: distilled water + Tween-80): 118 % of control

O=C(O)C(O)C(O)C(OC1OC(CO)C(O)C(O)C1O)C(O)CO.[Br][Pt].[NH-]C1CCCCC1[NH-] (centres undefined)
T/C (endpoint: median survival time, dose: 6.25 mg/kg/injection, schedule: Q04DX003 (ip), vehicle: saline): 158 % of control
T/C (endpoint: median survival time, dose: 12.5 mg/kg/injection, schedule: Q04DX003 (ip), vehicle: saline): 175 % of control
T/C (endpoint: median survival time, dose: 25.0 mg/kg/injection, schedule: Q04DX003 (ip), vehicle: saline): 163 % of control and 212 % of control
T/C (endpoint: median survival time, dose: 50.0 mg/kg/injection, schedule: Q04DX003 (ip), vehicle: saline): 178 % of control and 200 % of control

CC(=O)OC1COC(n2cnc3c(=O)[nH]cnc32)C(OC(C)=O)C1OC(C)=O (centres undefined)
T/C (endpoint: mean survival time, dose: 12.5 mg/kg/injection, schedule: Q01DX001 (ip), vehicle: saline): 100 % of control and 109 % of control
T/C (endpoint: mean survival time, dose: 25.0 mg/kg/injection, schedule: Q01DX001 (ip), vehicle: saline): 100 % of control and 106 % of control
T/C [1]: 118 % of control and 103 % of control
T/C [2]: 97 % of control and 106 % of control

N#C[SH2+].N#C[SH2+].N#C[SH2+].N#C[SH2+].[Cu+2].c1ccc(C[P+](c2ccccc2)(c2ccccc2)c2ccccc2)cc1
T/C (endpoint: mean survival time, dose: 6.0 mg/kg/injection, schedule: Q04DX003 (ip), vehicle: saline): 91 % of control
T/C (endpoint: mean survival time, dose: 12.0 mg/kg/injection, schedule: Q04DX003 (ip), vehicle: saline): 89 % of control
T/C (endpoint: mean survival time, dose: 25.0 mg/kg/injection, schedule: Q04DX003 (ip), vehicle: saline): 96 % of control

COCCOC(C)C(=O)C(O)S(=O)(=O)O (centres undefined)
T/C [1]: 98 % of control
T/C [2]: 102 % of control
T/C [3]: 103 % of control
T/C [4]: 100 % of control
T/C [5]: 103 % of control
T/C [6]: 100 % of control
T/C [7]: 103 % of control

O=C1C(N2CC2)=C(N2CCCC(O)C2)C(=O)C(N2CC2)=C1N1CCCC(O)C1 (centres undefined)
T/C (endpoint: mean survival time, dose: 2.0 mg/kg/injection, schedule: Q01DX009 (ip), vehicle: saline): 162 % of control and 173 % of control

O=C(NC(NC(=O)c1ccc(Cl)cc1)C(Cl)(Cl)Cl)c1ccc(Cl)cc1
T/C (endpoint: mean survival time, dose: 25.0 mg/kg/injection, schedule: Q04DX003 (ip), vehicle: saline with Tween-80): 98 % of control
T/C (endpoint: mean survival time, dose: 50.0 mg/kg/injection, schedule: Q04DX003 (ip), vehicle: saline with Tween-80): 88 % of control
T/C [8]: 90 % of control

COc1ccc2c(c1)C1(C)CCCC(C#N)C1CC2 (centres undefined)
T/C [2]: 101 % of control
T/C [4]: 96 % of control
T/C [6]: 94 % of control

CCc1ncc(C(O)c2ccc(Cl)cc2)n1Cc1ccccc1 (centres undefined)
T/C [9]: 92 % of control
T/C [10]: 95 % of control
T/C [11]: 92 % of control

CC(C)(C)N[P+](C)(NC(C)(C)C)c1ccccc1
T/C (endpoint: mean survival time, dose: 3.13 mg/kg/injection, schedule: Q04DX003 (ip), vehicle: saline): 98 % of control
T/C (endpoint: mean survival time, dose: 6.25 mg/kg/injection, schedule: Q04DX003 (ip), vehicle: saline): 103 % of control
T/C (endpoint: mean survival time, dose: 12.5 mg/kg/injection, schedule: Q04DX003 (ip), vehicle: saline): 86 % of control and 95 % of control

O=P(=O)OP(=O)=O.[O]=[W](=[O])=[O]
T/C [9]: 92 % of control
T/C [8]: 100 % of control
T/C [12]: 100 % of control
T/C [13]: 102 % of control

C[n+]1cnc2c(ccn2C2OC(CO)C(O)C2O)c1N (centres undefined)
T/C [1]: 102 % of control
T/C [2]: 100 % of control
T/C [4]: 102 % of control
T/C [6]: 100 % of control

COCS(=O)[O-].[C-]#[O+].[C-]#[O+].[Fe+6].[c-]1[c-][c-][cH-][c-]1
T/C (endpoint: mean survival time, dose: 12.5 mg/kg/injection, schedule: Q04DX002 (ip), vehicle: saline): 101 % of control
T/C (endpoint: mean survival time, dose: 25.0 mg/kg/injection, schedule: Q04DX002 (ip), vehicle: saline): 93 % of control
T/C (endpoint: mean survival time, dose: 50.0 mg/kg/injection, schedule: Q04DX002 (ip), vehicle: saline): 96 % of control

COc1ccc(CNC(C#N)c2ccccc2)cc1OC (centres undefined)
T/C [9]: 97 % of control
T/C [10]: 104 % of control
T/C [11]: 97 % of control

O=C(c1ccc([N+](=O)[O-])cc1)C(Br)C(Br)c1ccncc1 (centres undefined)
T/C [8]: 95 % of control
T/C [12]: 97 % of control
T/C [13]: 103 % of control

O=C(Nc1ccccc1)Nc1ccc2c(c1)oc1ccccc12
T/C (endpoint: mean survival time, dose: 50.0 mg/kg/injection, schedule: Q01DX001 (ip), vehicle: Klucel (hydroxypropylcellulose) (HPC)): 108 % of control
T/C (endpoint: mean survival time, dose: 100.0 mg/kg/injection, schedule: Q01DX001 (ip), vehicle: Klucel (hydroxypropylcellulose) (HPC)): 97 % of control
T/C (endpoint: mean survival time, dose: 100.0 mg/kg/injection, schedule: Q04DX002 (ip), vehicle: saline with Tween-80): 95 % of control
T/C (endpoint: mean survival time, dose: 200.0 mg/kg/injection, schedule: Q01DX001 (ip), vehicle: Klucel (hydroxypropylcellulose) (HPC)): 94 % of control
T/C (endpoint: mean survival time, dose: 200.0 mg/kg/injection, schedule: Q04DX002 (ip), vehicle: saline with Tween-80): 91 % of control
T/C (endpoint: mean survival time, dose: 400.0 mg/kg/injection, schedule: Q04DX002 (ip), vehicle: saline with Tween-80): 98 % of control

CC(N)(CCC(=O)O)C(=O)O (centres undefined)
T/C [9]: 96 % of control
T/C [10]: 101 % of control

CCCC1=NC(C)(C)CO1
T/C [3]: 92 % of control
T/C [5]: 94 % of control
T/C [7]: 105 % of control

COC(=O)C(CC(C)C)NC(=O)C(N)CSC(c1ccccc1)(c1ccccc1)c1ccccc1 (centres undefined) (H-Cys(Trt)-Leu-OMe; configuration not given here)
T/C (endpoint: mean survival time, dose: 25.0 mg/kg/injection, schedule: Q01DX009 (ip), vehicle: saline): 104 % of control
T/C (endpoint: mean survival time, dose: 50.0 mg/kg/injection, schedule: Q01DX009 (ip), vehicle: saline): 110 % of control
T/C (endpoint: mean survival time, dose: 100.0 mg/kg/injection, schedule: Q01DX009 (ip), vehicle: saline): 108 % of control

CO/C(=N\C(=O)NC1CC(OC(=O)c2ccc(C)cc2)C(COC(=O)c2ccc(C)cc2)O1)NC(=O)c1ccc(C)cc1 (centres undefined)
T/C [8]: 90 % of control

CCCCCC(O)C1CCCCC1C (centres undefined)
T/C [8]: 105 % of control
T/C [12]: 102 % of control
T/C [13]: 90 % of control

COC(=O)C1CCCC(=O)C1C(=O)OC (centres undefined)
T/C (endpoint: mean survival time, dose: 100.0 mg/kg/injection, schedule: Q01DX009 (ip), vehicle: other): 95 % of control
T/C (endpoint: mean survival time, dose: 200.0 mg/kg/injection, schedule: Q01DX009 (ip), vehicle: other): 101 % of control
T/C (endpoint: mean survival time, dose: 400.0 mg/kg/injection, schedule: Q01DX009 (ip), vehicle: other): 92 % of control

COC1OC2COC(c3ccccc3)OC2C(O)C1N (centres undefined)
T/C [14]: 96 % of control
T/C [15]: 100 % of control
T/C [9]: 103 % of control

Cc1ccc2c([N+](=O)[O-])cccc2n1
T/C [14]: 93 % of control
T/C [15]: 96 % of control
T/C [9]: 104 % of control
